Laboratory results reported in paper PMC12742849 (Protein & Cell, 2025).

Biological target: RibD-enolase complex (RibD activity) (Francisella tularensis, UniProt A0Q460)
Conditions: substrate generated in situ from GTP by E. coli RibA; with and without PEP

For `Nc1nc(N[C@@H]2O[C@H](COP(=O)(O)O)[C@@H](O)[C@H]2O)c(N)c(=O)[nH]1` [2,5-diamino-6-ribosyl-amino-4(3H) pyrimidinedione 5′-phosphate], the “fluorescence of the RibD reaction product (ex 408 nm, em 485 nm)” value was “Results showed similar activity for both, with PEP having the same effect on each”.
